Data on one compound can be found in patent US12491180B2, “Application of compound in treating pneumonia” (SHENZHEN OPTIMUM BIOLOGICAL TECHNOLOGY CO., LTD., priority 2019, dated 2025).

SMILES strings stand for the structures. In brackets after ≈: the same amount, converted by molar mass.

Holding throughout (experiment): MIC, solid dilution method
For experiment [1], the system named is Acinetobacter baumannii 8476. The experiment is classed as cell-based. As to conditions: A.B 8476, CRE clinical isolate, MHA agar, 37° C., 16-20 hours, read-out: MIC. On the procedure: (§1) CRE Acinetobacter baumannii 8476, 6383, a total of 2 strains; CRE Serratia marcescens 14541, a total of 1 strain; all collected in the Department of Infectious Diseases, West China Hospital, Chengdu, Sichuan Province, and kept in our laboratory.
(§2) The above-mentioned glycerol-preserved strains were taken out from the −80° C. refrigerator, streaked and inoculated on MHA plates, labeled, and cultured overnight in a 37° C. incubator.
(§3) The inoculum was prepared directly from bacterial suspension, and several recovered colonies were picked and directly prepared into a bacterial suspension with a turbidity of No. 0.5 McFarland units in normal saline, and a 10-fold dilution was made during inoculation.
(§4) 6 bottles of MHA culture medium 500 mL/bottle were prepared, and the pH was adjusted to 7.2-7.4, sterilized at 121° C. for 15 min, and the medium was placed in a 55° C. water bath to keep warm.
(§5) Sterile blank petri dishes were taken, and marked with each FL drug/concentration according to 2-fold dilution, and 10 concentrations of each drug starting from 8 μg/mL were tested.
(§6) […]; 20 mL was aspirated and added to a petri dish consistent with the mark, and then 20 mL of MHA culture medium was added to the rest of the drug-containing culture medium, mixed evenly, that is, the 2-fold diluted drug-containing culture medium; 20 mL was aspirated and added to the petri dish consistent with the mark, and then diluted to the 10th concentration and the […] respectively by repeating the above-mentioned steps, and then poured into the petri dish.
(§7) 4 bacterial control petri dishes without drug were prepared at the same time as a control.
(§8) The positioning needle and the inoculation needle were installed according to the order of placement of the colony on the inoculation plate. After inoculation, a bacterial solution circle was formed on the petri dish. After the bacterial solution was absorbed by the agar, the petri dish was placed in an incubator at 37° C. for overnight incubation (16-20 hours), and then taken out.
(§9) The minimum inhibitory concentrations of the compounds against the CRE and CSE strains were determined by the solid dilution method, and the results are shown in Tables 3 and 4.

Experiment [2] concerns Acinetobacter baumannii 6383. The class given is cell-based. To be noted: 6383. On the procedure: as §1, §2, §3, §4, §5, §6, §7, §8, §9
Experiment [3] deals with Serratia marcescens 14541. The class given is cell-based. To be noted: 14541. The procedure:
as §1, §2, §3, §4, §5, §6, §7, §8, §9

Experiment [4] has as its system Klebsiella pneumoniae 13249. The class given is cell-based. As to conditions: 13249. The procedure: (§10) (2) Clinical isolated strains: CRE Klebsiella pneumoniae 5846, 11544, 12559, 13249 and CSE Klebsiella pneumoniae 8733, a total of 5 strains;
as §2, §3, §4, §5, §6, §7, §8, §9

The subject of experiment [5] is Klebsiella pneumoniae 5846. The experiment is classed as cell-based. To be noted: 5846. The procedure:
as §10, §2, §3, §4, §5, §6, §7, §8, §9

For experiment [6], the system named is Klebsiella pneumoniae 12559. The class given is cell-based. To be noted: K.p 12559, CRE clinical isolate, MHA agar, 37° C., 16-20 hours, read-out: MIC. On the procedure:
as §10, §2, §3, §4, §5, §6, §7, §8, §9

Experiment [7] relates to Klebsiella pneumoniae 11544. The experiment is classed as cell-based. To be noted: 11544. On the procedure:
as §10, §2, §3, §4, §5, §6, §7, §8, §9

In experiment [8] the test system is Klebsiella pneumoniae 8733. The class given is cell-based. As to conditions: K.p 8733, CSE clinical isolate, MHA agar, 37° C., 16-20 hours, read-out: MIC. On the procedure: as §10, §2, §3, §4, §5, §6, §7, §8, §9
Experiment [9] has as its system Enterobacter aerogenes 8193. The experiment is classed as cell-based. To be noted: Klebsiella aerogenes; E. ae 8193, CRE clinical isolate; MHA agar, 37° C., 16-20 hours; read-out: MIC. The procedure:
CRE Enterobacter aerogenes 8193, a total of 1 strain;
as §2, §3, §4, §5, §6, §7, §8, §9

The subject of the next experiment is Escherichia coli 13897. The experiment is classed as cell-based. To be noted: E. coli 13897, CRE clinical isolate, MHA agar, 37° C., 16-20 hours, read-out: MIC. On the procedure: as §2, §3, §4, §5, §6, §7, §8, §9
For the next experiment, the system named is E. coli 11256. The class given is cell-based. As to conditions: Escherichia coli; E. coli 11256; MHA agar, 37° C., 16-20 hours; read-out: MIC. The procedure: as §2, §3, §4, §5, §6, §7, §8, §9
The subject of a further experiment is Klebsiella oxytoca 12391. The class given is cell-based. To be noted: K. ox 12391, CRE clinical isolate, MHA agar, 37° C., 16-20 hours, read-out: MIC. On the procedure: as §2, §3, §4, §5, §6, §7, §8, §9
The next experiment concerns Klebsiella oxytoca 6777. The experiment is classed as cell-based. As to conditions: 6777. The procedure: as §2, §3, §4, §5, §6, §7, §8, §9
Another experiment relates to Klebsiella oxytoca 14151. The experiment is classed as cell-based. To be noted: 14151. On the procedure: as §2, §3, §4, §5, §6, §7, §8, §9
In the next experiment the test system is Klebsiella oxytoca 14153. The experiment is classed as cell-based. To be noted: 14153. On the procedure: as §2, §3, §4, §5, §6, §7, §8, §9
In a further experiment the test system is Escherichia coli 14828. The class given is cell-based. As to conditions: 14828. On the procedure:
as §2, §3, §4, §5, §6, §7, §8, §9

A further experiment relates to Escherichia coli 11119. The experiment is classed as cell-based. To be noted: 11119. The procedure: as §2, §3, §4, §5, §6, §7, §8, §9
Another experiment has as its system E. ae 14186. The experiment is classed as cell-based, Enterobacter aerogenes. As to conditions: Klebsiella aerogenes, 14186. On the procedure:
as §2, §3, §4, §5, §6, §7, §8, §9

Experiment [10] has as its system Escherichia coli BAA-2452. The experiment is classed as cell-based. To be noted: BAA2452, E. coli BAA-2452, standard strain, MHA agar, 37° C., 16-20 hours, read-out: MIC. The procedure: (§11) (1) Standard strains: Escherichia coli BAA-2452, Escherichia coli ATCC25922, Klebsiella pneumoniae BAA-1705; all purchased from ATCC.
as §2, §3, §4, §5, §6, §7, §8, §9

The test system of experiment [11] is Escherichia coli ATCC25922. The class given is cell-based. As to conditions: E. coli ATCC25922, standard strain, MHA agar, 37° C., 16-20 hours, read-out: MIC. On the procedure: as §11, §2, §3, §4, §5, §6, §7, §8, §9
Experiment [12] relates to Klebsiella pneumoniae BAA-1705. The class given is cell-based. To be noted: BAA1705. On the procedure:
as §11, §2, §3, §4, §5, §6, §7, §8, §9

Experiment [13] concerns Citrobacter freundii 7646. The experiment is classed as cell-based. As to conditions: C.f 7646, CSE clinical isolate, MHA agar, 37° C., 16-20 hours, read-out: MIC. The procedure: (§12) CRE Citrobacter freundii 9434, 9484 and CSE Citrobacter freundii 7646, a total of 3 strains;
as §2, §3, §4, §5, §6, §7, §8, §9

Experiment [14] deals with Citrobacter freundii 9434. The class given is cell-based. To be noted: 9434. The procedure: as §12, §2, §3, §4, §5, §6, §7, §8, §9
The subject of experiment [15] is Citrobacter freundii 9484. The experiment is classed as cell-based. To be noted: C.f 9484, CRE clinical isolate, MHA agar, 37° C., 16-20 hours, read-out: MIC. The procedure: as §12, §2, §3, §4, §5, §6, §7, §8, §9

The MIC is the lowest concentration found to suppress growth.

With `C[C@H]1[C@H](NC(=O)/C(=N\OC(C)(C)C(=O)O)c2csc(N)n2)C(=O)N1S(=O)(=O)O` [Aztreonam, aztreonam, reference compound], the minimal inhibitory concentration (MIC) is 64 µg/mL (≈ 147 µM) in experiment [1]; 128 µg/mL (≈ 294 µM) in experiment [2]; greater than 128 µg/mL in experiment [3]; greater than 128 µg/mL in experiment [4]; 128 µg/mL (≈ 294 µM) in [5]; 4 µg/mL (≈ 9.19 µM) in [6]. Further, the minimum inhibitory concentration (MIC) in experiment [7] was greater than 128 µg/mL; in experiment [8], 8 µg/mL (≈ 18.4 µM); in [9], 32 µg/mL (≈ 73.5 µM); in the experiment with Escherichia coli 13897, 64 µg/mL (≈ 147 µM); with E. coli 11256 it was less than 0.25 µg/mL; in the experiment with Klebsiella oxytoca 12391, 32 µg/mL (≈ 73.5 µM). The MIC in the experiment with Klebsiella oxytoca 6777 was 128 µg/mL (≈ 294 µM); in the experiment with Klebsiella oxytoca 14151, greater than 128 µg/mL; with Klebsiella oxytoca 14153, greater than 128 µg/mL; with Escherichia coli 14828, greater than 128 µg/mL; with Escherichia coli 11119, greater than 128 µg/mL; with E. ae 14186 it was greater than 128 µg/mL. The MIC is 8 µg/mL (≈ 18.4 µM) in [10]; less than 0.25 µg/mL in [11]; greater than 128 µg/mL in experiment [12]; 16 µg/mL (≈ 36.7 µM) in experiment [13]; greater than 128 µg/mL in experiment [14]; 1 µg/mL (≈ 2.3 µM) in experiment [15].
